Reference: EP1298214A2, “Plant thioesterases” (Calgene LLC, priority 1990, dated 1991)
Read-outs that look alike come from different tables or passages of the source.

Columns and labels:
[1] = tested on: material which fails to bind the ACP column (Lauroyl-CoA hydrolysis activity); assay: Substrate hydrolysis (ACP versus CoA) by peak unbound fraction of the ACP column; format: biochemical, Umbellularia californica; conditions: Flow-through (nonbinding) fraction; cpm of ether-extractable product
Experimental: (§1) To assay for C12 thioesterase activity the following mixture is incubated at 30° for 30 min: "buffer" comprising 7mM KH2PO4-KOH pH 8, 20% v/v glycerol, 1mM dithiothreitol (DTT), 0.1% v/v Triton X100; sample to be tested for activity in the same or similar buffer as the "extraction buffer" described in Example 2; and 5µl of ^14C-radiolabeled lauroyl-ACP substrate for a total volume of 100µl and final lauroyl-ACP concentration of 0.5µM. Lauroyl-ACP substrate is prepared according to the method of Rock et al (Methods in Enzymology (1981) 72:397-403), using ACP prepared from Escherichia coli by the method of Rock and Cronan (Methods in Enzymology (1981) 71:341-351). The laurate is radiolabeled in the carboxylate group at a specific radioactivity of 50-60µCi/µmol.
(§2) The reaction is stopped by adding 0.5ml cold (0°) 10% v/v acetic acid. […] After settling for a few minutes the upper ether layer is transferred to 5ml scintillation fluid for determination of radioactivity by liquid scintillation spectrometry. Additional ether extractions may be performed to recover remaining traces of the reaction product for more accurate quantitation of the enzyme activity if desired. The amount of ether-extracted radioactivity is a direct measure of C12-preferring acyl-ACP thioesterase activity, provided the amount of enzyme is not sufficient to hydrolyze more than about 25% of the substrate. […]

[2] = tested on: Bay seeds extractable C12-preferring acyl-ACP thioesterase and lauroyl-CoA hydrolysis activity; assay: Extractable hydrolysis activity at two stages of Bay seed development; format: biochemical, Umbellularia californica; conditions: cpm ether-extractable radioactivity
Experimental: as §1
(§3) The reaction is stopped by adding 0.5ml cold (0°) 10% v/v acetic acid. The fatty acid product of the hydrolytic enzyme action is extracted away from the unhydrolyzed substrate by adding 1ml diethyl ether and mixing vigorously. After settling for a few minutes the upper ether layer is transferred to 5ml scintillation fluid for determination of radioactivity by liquid scintillation spectrometry. Additional ether extractions may be performed to recover remaining traces of the reaction product for more accurate quantitation of the enzyme activity if desired. The amount of ether-extracted radioactivity is a direct measure of C12-preferring acyl-ACP thioesterase activity, provided the amount of enzyme is not sufficient to hydrolyze more than about 25% of the substrate. With greater activity than this the relationship between radioactivity in the ether layer and the quantity of enzyme becomes markedly nonlinear. The enzyme preparation must then be diluted appropriately to bring the activity into the linear range of the assay.
Further evidence that the C12-preferring acyl-ACP thioesterase is involved in the biosynthesis of laurate groups that predominate in the Bay seeds comes from a comparison of the extractable activity of the enzyme at two different stages of seed development. As shown in the following table, Table 5, very young seeds, which contain only long-chain fatty acids and insignificant amounts of laurate, yield much less C12-preferring ACP thioesterase than older seeds that have accumulated significant amounts of laurate. Thus it appears that significant activity of this enzyme is only present when the seeds are accumulating laurate. Additionally, there appears to be much less difference in lauroyl-CoA hydrolysis activity, consistent with their being different enzymes as discussed above in Example 5.

[3] = molecular target: T1, Bay C12-preferring acyl-ACP thioesterase (Umbellularia californica, UniProt Q41635); assay: Substrate hydrolysis (ACP versus CoA) by peak gradient-eluted fraction of the ACP column; format: biochemical; set-up: This comprises the source tissue for enzyme extraction; from tissue; host or cells: cotyledons of immature Umbellularia californica seeds; conditions: cpm of ether-extractable product
T1 sequence (Q41635 84-382): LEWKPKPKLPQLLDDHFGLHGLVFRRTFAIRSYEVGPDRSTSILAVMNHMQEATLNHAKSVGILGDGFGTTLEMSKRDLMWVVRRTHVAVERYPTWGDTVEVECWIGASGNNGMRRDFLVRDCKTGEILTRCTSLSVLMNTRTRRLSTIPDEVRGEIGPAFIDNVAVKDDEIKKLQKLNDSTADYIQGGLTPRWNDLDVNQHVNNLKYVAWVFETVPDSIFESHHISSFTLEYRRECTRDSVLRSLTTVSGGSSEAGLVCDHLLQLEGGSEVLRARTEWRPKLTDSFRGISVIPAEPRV
Experimental: as §1, §2

[4] = molecular target: T2, Bay cotyledon C12-preferring acyl-ACP thioesterase (Umbellularia californica, UniProt Q41635); assay: C12-preferring acyl-ACP thioesterase inhibitor studies, Bay ammonium sulfate fraction; format: biochemical; conditions: for inhibition at 500 µM / inhibition at 5000 µM: read-out: Percent Inhibition; for sensitivity of the thioesterase to the thiol reagent (in words): 5mM, preliminary inhibitor studies
T2 construct: This comprises the source tissue for enzyme extraction; from tissue; host or cells: cotyledons of immature Umbellularia californica seeds
T2 sequence (Q41635 84-382): T1 sequence (Q41635 84-382)
Experimental: as §1, §3
The crude extract is subjected to ammonium sulfate fractionation as follows. Sufficient solid ammonium sulfate is gradually added with stirring over 30 min to achieve 70% saturation. The preparation is then stirred for a further 30 min. After centrifuging as described above, the pelleted material is resuspended in extraction buffer (2ml/g original tissue weight) and stirred for 10 min until dissolved. Ammonium sulfate is then added as before, but this time only sufficient to achieve 50% saturation. After centrifuging as before, the supernatant fraction is discarded. The pelleted material, which contains the C12-preferring acyl-ACP thioesterase, may be frozen by immersion in liquid nitrogen and then stored at -70° at this stage if desired. The resulting material is referred to as the "ammonium sulfate fraction." Very little of the C12-preferring acyl-ACP thioesterase activity is lost if the pellet is frozen very rapidly.
Table 1 below reports inhibition of Bay cotyledon C12-preferring acyl-ACP thioesterase by thiol reagents observed when an ammonium sulfate fraction (see, Example 2) was assayed (see, Example 1).
After removal of dithiothreitol from an ammonium sulfate fraction preparation by passage through a small. column of G25-50 gel filtration medium (Pharmacia, Piscataway, NJ) the following assay results were observed.

[5] = tested on: Cuphea C10-preferring acyl-ACP thioesterase; assay: C10 acyl-ACP thioesterase inhibitor studies, material from Example 9A; format: biochemical, Cuphea hookeriana; conditions: preliminary inhibitor studies; for sensitivity of the thioesterase to the inhibitor (in words): concentration not given
Experimental: Following the same general procedures as outlined in Example 1, to assay for C10 thioesterase activity, the following mixture is incubated at 30° for 10-60 min: 50µl sample to be tested in the same or similar "extraction buffer" described in Example 9A, and approximately 250pmol of [^14C]-radiolabeled acyl-ACP substrate, (usually decanoyl-ACP is labeled in the carboxylate group to 50-60µCi/µmol) in a total volume of […], for a final decanoyl-ACP concentration of 0.5-5.0µM, typically 5.0µM. The reaction is stopped by adding 0.5ml 10% (v/v) cold (4°) acetic acid and placing the reaction mixture on ice for a few minutes. The fatty acid product of the hydrolytic enzyme action is extracted away from the unhydrolyzed substrate by adding 2ml diethyl ether and mixing vigorously. The ether is transferred to 5ml scintillation fluid for scintillation counting. Additional ether extracts may be performed to recover remaining traces of product for more accurate quantitation of the activity if desired.
An acetone powder is prepared by grinding the seeds to a powder in a mortar and pestle under liquid nitrogen, and then grinding the powder in a mortar and pestle with cold acetone (at approximately -20°). The powder is collected by filtration and rinsed with cold ether to remove remaining traces of acetone. It is then extracted with 10ml of "extraction buffer" per gram of acetone powder weight (this and all subsequent steps at 0-4°) comprising 50mM KH2PO4-KOH pH 7.5, 10mM 2-mercaptoethanol. The homogenate is centrifuged at 11,000xg for 15 min at 4°, and the supernatant fraction used for subsequent purification steps after filtration through two layers of Miracloth (Calbiochem. Inc.; LaJolla, CA).
The supernatant fraction is then subjected to ammonium sulfate fractionation. The 40-60% saturation ammonium sulfate pellet (prepared as described in Example 2) is redissolved in "buffer" comprising 50mM KH2PO4-KOH pH 6.9, 10% (v/v) glycerol, and 10mM 2-mercaptoethanol, and dialyzed against this buffer to remove remaining ammonium sulfate. […]

[6] = 0.5mM added to assay, mean of duplicates, ether layer, control without addition 4322
[7] = 5mM added to assay, after removal of dithiothreitol by G25-50 gel filtration, control 3776
[8] = 5mM added to assay, after removal of dithiothreitol by G25-50 gel filtration
[9] = 5mM added to assay, mean of duplicates, ether layer, control without addition 4322

CCCCCCCCCCCC(=O)SCCNC(=O)CCNC(=O)[C@H](O)C(C)(C)COP(=O)(O)OP(=O)(O)OC[C@H]1O[C@@H](n2cnc3c(N)ncnc32)[C@H](O)[C@@H]1OP(=O)(O)O [C12-CoA, lauroyl coenzyme A]
Activity on Substrate [1]: 10808 cpm | Hydrolysis / Thioesterase Activity In Assays ([2]; Normal Seeds (2g/cotyledon pair)): 31,268 cpm | Hydrolysis / Thioesterase Activity In Assays ([2]; Young Seeds (0.5g/cotyledon pair)): 29,995 cpm | Activity on Substrate [3]: 27 cpm

CCN1C(=O)C=CC1=O [N-ethylmaleimide]
Mean Activity [4, 6]: 4320 cpm | inhibition at 500 µM ([4]; 0.5mM added to assay): 0% | Mean Activity [4, 7]: 269 cpm | inhibition at 5000 µM [4, 8]: 93% | Mean Activity [4, 9]: 103 cpm | inhibition at 5000 µM ([4]; 5mM added to assay): 98% | sensitivity of the thioesterase to the thiol reagent (in words) [4]: almost completely inhibited | inhibition of the thioesterase (in words) ([5]; 5mM): completely inhibited

NC(=O)CI [iodoacetamide]
Mean Activity [4, 6]: 4180 cpm | inhibition at 500 µM ([4]; 0.5mM added to assay): 3% | Mean Activity [4, 7]: 3851 cpm | inhibition at 5000 µM [4, 8]: 0% | Mean Activity [4, 9]: 4047 cpm | inhibition at 5000 µM ([4]; 5mM added to assay): 6% | sensitivity of the thioesterase to the thiol reagent (in words) [4]: insensitive | sensitivity of the thioesterase to the inhibitor (in words) [5]: insensitive

O=S(=O)(F)Cc1ccccc1 [phenylmethylsulfonyl fluoride]
sensitivity of the thioesterase to the inhibitor (in words) [5]: insensitive
